According to article PMC10778976, “BAY-3827 and SBI-0206965: Potent AMPK Inhibitors That Paradoxically Increase Thr172 Phosphorylation” (International Journal of Molecular Sciences, 2023):
Where “and” joins values, the source holds several entries; their conditions need not be identical. Equal values may be shown once. Read-outs that look alike come from different tables or passages of the source.

How the values were obtained:
[1] = target: human α1β1γ1 complex (Homo sapiens, UniProt Q13131); assay: Cell-free kinase assay of bacterially expressed human α1β1γ1 complex phosphorylated on Thr172 by CaMKK2; format: biochemical; conditions: ATP 200 µM; read-out: IC50, inhibition of human α1β1γ1 complex
Source text: AMPK assays measured the transfer of radioactivity from labelled ATP to a peptide substrate, which was separated from unreacted ATP by binding to P81 paper. This assay was described previously, except that we used [γ-^33P]ATP rather than [γ-^32P]ATP. The peptide substrate was the AMARA peptide in all experiments other than one, which analyzed allosteric activation by AMP (Figure 2A), when, for technical reasons, the SAMS peptide was used instead. With purified preparations of AMPK, it was assayed in solution, but for assays in cell lysates (Figure 3D and Figure 4D), it was first immunoprecipitated using a mixture of anti-α1 and -α2 antibodies and assayed in resuspended immunoprecipitates. After the initial immunoprecipitation of lysate containing 80 µg of protein, the pellets were washed twice with 1 mL of high salt IP buffer (50 mM Tris-HCL, pH 7.4 at 4 °C, 1 M NaCl, 1 mM EDTA, 1 mM EGTA, 50 mM NaF, 5 mM Na pyrophosphate, 1 mM dithiothreitol, 0.1% (v/v) Triton X-100) and twice with 1 mL of low salt IP buffer (as above but only 150 mM NaCl), followed by a final wash in 1 mL of assay buffer (50 mM Na Hepes, pH7.4, 150 mM NaCl, 1 mM dithiothreitol, 0.02% (v/v) Brij-35). After each wash, the pellet was recovered via centrifugation (16,000× g, 3 min) and then resuspended. […]

[2] = test system: GBF1 (Thr1337) phosphorylation in U2OS cells; assay: GBF1 phosphorylation in U2OS cells (Western blot); format: cell-based, human; conditions: 30 min inhibitor then 30 min MK-8722 (300 nM), read-out: IC50, inhibition of MK-8722-stimulated GBF1 phosphorylation
Description: T-Rex U2OS cells carrying a Flp Recombinase Target (FRT) site were generated as described previously and grown in Dulbecco’s Modified Eagle’s Medium (DMEM) supplemented with 10% (v/v) FBS and 1% (v/v) penicillin/streptomycin.
Cells were lysed rapidly in situ on culture plates using ice-cold lysis medium containing phosphatase inhibitors, as described previously.
SDS-PAGE was performed using precast NuPAGE Tris-acetate 3–8% gradient polyacrylamide gels in Tris-acetate running buffer when analyzing ACC, GBF1, or Raptor, or NuPAGE Bis-Tris 4–12% gradient polyacrylamide gels in the MOPS buffer system (ThermoFisher Scientific, Waltham, MA, USA) for other proteins (unless stated otherwise). Proteins were transferred to nitrocellulose membranes using the iBlot 2 system (ThermoFisher Scientific). Membranes were enhanced if necessary using SuperSignal Western Blot Enhancer (ThermoFisher Scientific), then blocked for 1 h in Li-Cor Odyssey blocking buffer. The membranes were probed with the appropriate primary antibody ([…]) overnight at 4 °C. Detection was performed using secondary antibody or streptavidin probe (for total ACC) coupled to IR 680 or IR 800 dye, and the membranes were scanned using the LICOR Odyssey IR imager. Protein concentrations were determined by Coomassie Blue binding with bovine serum albumin as a standard. The cellular levels of AMP and ATP were determined via direct perchloric acid extraction from cells, with LC:MS used to estimate the levels of each nucleotide.

[3] = target: T1, LKB1 (human LKB1:STRADα:MO25α complex) (Homo sapiens, UniProt Q15831); assay: LKB1 activity using LKBtide peptide; format: biochemical; conditions: LKBtide substrate
T1 construct: made in house
T1 sequence (Q15831 1-433): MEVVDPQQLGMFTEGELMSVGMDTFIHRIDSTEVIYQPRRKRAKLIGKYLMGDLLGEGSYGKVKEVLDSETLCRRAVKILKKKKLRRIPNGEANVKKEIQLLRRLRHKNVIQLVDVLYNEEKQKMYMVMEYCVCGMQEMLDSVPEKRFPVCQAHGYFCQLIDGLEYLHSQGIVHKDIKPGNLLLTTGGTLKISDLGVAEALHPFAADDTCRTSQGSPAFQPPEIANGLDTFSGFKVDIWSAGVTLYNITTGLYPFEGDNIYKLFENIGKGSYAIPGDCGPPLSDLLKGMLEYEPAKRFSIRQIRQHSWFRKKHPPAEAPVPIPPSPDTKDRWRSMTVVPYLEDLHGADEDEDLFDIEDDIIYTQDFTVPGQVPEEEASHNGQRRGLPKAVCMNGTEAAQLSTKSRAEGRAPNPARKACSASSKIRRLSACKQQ
T1 sequence (Q7RTN6 1-431 partner): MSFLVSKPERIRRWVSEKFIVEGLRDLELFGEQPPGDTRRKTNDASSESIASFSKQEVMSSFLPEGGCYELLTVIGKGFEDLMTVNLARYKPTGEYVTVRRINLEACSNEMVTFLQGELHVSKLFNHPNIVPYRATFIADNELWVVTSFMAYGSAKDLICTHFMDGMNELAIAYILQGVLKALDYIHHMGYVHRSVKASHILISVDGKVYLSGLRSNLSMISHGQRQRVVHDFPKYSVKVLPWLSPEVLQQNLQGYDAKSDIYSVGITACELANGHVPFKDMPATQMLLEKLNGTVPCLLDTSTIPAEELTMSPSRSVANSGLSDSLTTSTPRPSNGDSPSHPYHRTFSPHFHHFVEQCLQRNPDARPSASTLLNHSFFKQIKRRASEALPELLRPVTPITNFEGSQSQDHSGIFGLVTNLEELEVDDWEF
T1 sequence (Q9Y376 1-341 partner): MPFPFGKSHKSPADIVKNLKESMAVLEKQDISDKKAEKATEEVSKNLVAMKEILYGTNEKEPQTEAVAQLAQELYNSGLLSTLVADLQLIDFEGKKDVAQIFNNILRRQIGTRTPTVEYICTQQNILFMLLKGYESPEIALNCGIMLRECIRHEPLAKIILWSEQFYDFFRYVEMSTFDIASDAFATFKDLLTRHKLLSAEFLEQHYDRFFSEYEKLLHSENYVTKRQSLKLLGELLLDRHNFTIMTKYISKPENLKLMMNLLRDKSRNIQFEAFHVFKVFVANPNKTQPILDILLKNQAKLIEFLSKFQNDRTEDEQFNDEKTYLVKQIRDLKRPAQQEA
Description: To directly determine LKB1 activity, kinase assays were performed in the presence or absence of the indicated concentration of BAY-3827 or SBI-0206965 as for AMPK, except that LKBtide was used as a peptide substrate. PPM1A activity was determined using p-nitrophenyl phosphate (pNPP) as a substrate. PPM1A (5 µg) was incubated with 50 mM pNPP and 50 mM MgCl2 in Hepes buffer in the presence of a vehicle or the indicated concentration of BAY-3827 or SBI-0206965 for 10 min at 30 °C. The reaction was quenched by the addition of 1 mL of 0.5 M EDTA and the amount of product, p-nitrophenol, determined by measuring absorbance at 405 nm.

human α1β1γ1 complex, sequence (Q13131 whole entry): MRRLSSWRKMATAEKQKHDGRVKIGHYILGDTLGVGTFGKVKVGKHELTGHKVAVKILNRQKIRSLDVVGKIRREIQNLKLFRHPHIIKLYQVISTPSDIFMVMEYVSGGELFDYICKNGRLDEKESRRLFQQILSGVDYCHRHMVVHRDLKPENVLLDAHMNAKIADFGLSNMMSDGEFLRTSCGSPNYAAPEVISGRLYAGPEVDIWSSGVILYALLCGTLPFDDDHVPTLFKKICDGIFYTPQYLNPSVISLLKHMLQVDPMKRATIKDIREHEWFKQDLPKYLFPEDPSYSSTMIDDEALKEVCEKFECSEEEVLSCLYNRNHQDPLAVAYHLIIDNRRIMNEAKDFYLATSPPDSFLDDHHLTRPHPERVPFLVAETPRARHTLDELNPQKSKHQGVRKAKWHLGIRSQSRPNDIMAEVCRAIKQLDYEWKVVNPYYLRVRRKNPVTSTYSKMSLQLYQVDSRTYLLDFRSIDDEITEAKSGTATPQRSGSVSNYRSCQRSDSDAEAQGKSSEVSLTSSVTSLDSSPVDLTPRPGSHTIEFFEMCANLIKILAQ
human α1β1γ1 complex, sequence (P54619 whole entry, further chain): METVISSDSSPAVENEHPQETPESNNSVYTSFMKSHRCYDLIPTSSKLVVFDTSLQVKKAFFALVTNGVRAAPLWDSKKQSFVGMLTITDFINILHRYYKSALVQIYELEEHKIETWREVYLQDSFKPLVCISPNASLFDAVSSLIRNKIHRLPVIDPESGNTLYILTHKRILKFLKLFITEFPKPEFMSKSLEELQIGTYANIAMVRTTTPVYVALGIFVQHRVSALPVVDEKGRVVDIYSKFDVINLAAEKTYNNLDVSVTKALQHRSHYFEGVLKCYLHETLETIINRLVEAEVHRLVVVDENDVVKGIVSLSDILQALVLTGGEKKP
human α1β1γ1 complex, sequence (Q9Y478 2-270, further chain): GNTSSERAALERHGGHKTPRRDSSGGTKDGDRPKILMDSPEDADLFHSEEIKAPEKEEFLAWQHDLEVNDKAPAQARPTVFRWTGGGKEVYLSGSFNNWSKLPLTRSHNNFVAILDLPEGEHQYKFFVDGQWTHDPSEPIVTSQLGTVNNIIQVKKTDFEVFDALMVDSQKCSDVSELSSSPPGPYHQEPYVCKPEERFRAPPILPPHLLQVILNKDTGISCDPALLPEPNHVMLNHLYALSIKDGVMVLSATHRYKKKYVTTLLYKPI

| Structure (SMILES) | IC50 [1] | IC50 [2] [nM] | IC50 ([3]; read-out: IC50, inhibition of LKB1 activity) [nM] | IC50 ([2]; Homo sapiens, 0.5 h) [nM] | effect on LKB1 activity ([3]; all concentrations used) |
| --- | --- | --- | --- | --- | --- |
| CNC(=O)c1ccccc1Oc1nc(Nc2cc(OC)c(OC)c(OC)c2)ncc1Br [SBI-0206965] | 247 nM and 250 nM | 12000 | 6100 | – | – |
| CCc1ccccc1C(=O)Nc1n[nH]c2c(C)c(F)c(C3C(C#N)=C(C)N(C)C(C)=C3C#N)cc12 [BAY-3827] | 25 nM | – | – | 55 | no inhibition |
